Measured values from ChEMBL document CHEMBL1201862, “PubChem BioAssay data set” (2004).
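Tested at 5 concentrations; 48 h exposure; 96-well plates; endpoints linearly interpolated, else capped at highest concentration. At the GI50, growth is halved.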 Active and inactive are the calls of the source. No stated cut-off is given here; in the data, active = GI50 up to about 1.1 µM and inactive = higher.

Experiments:
Test in all cases: NCI anticancer screen, dose series, 48 h
786-0 = test system: 786-0
MDA-MB-231 = test system: MDA-MB-231
NCI-H460 = test system: NCI-H460
NCI-H226 = test system: NCI-H226
DMS-273 = test system: DMS-273
SK-MEL-2 = test system: SK-MEL-2
MDA-N = test system: MDA-N
KM12 = test system: KM12
TK-10 = test system: TK-10
OVCAR-5 = test system: OVCAR-5
M19-MEL = test system: M19-MEL
KM-20L2 = test system: KM-20L2
SW-620 = test system: SW-620
HCC 2998 = test system: HCC 2998
A549 = test system: A549
M14 = test system: M14
PC-3 = test system: PC-3
T47D = test system: T47D
SN12C = test system: SN12C
Hs-578T = test system: Hs-578T
OVCAR-8 = test system: OVCAR-8
HOP-92 = test system: HOP-92
NCI-H23 = test system: NCI-H23
NCI/ADR-RES = test system: NCI/ADR-RES
MDA-MB-435 = test system: MDA-MB-435
SNB-75 = test system: SNB-75
IGROV-1 = test system: IGROV-1
K562 = test system: K562
LOX IMVI = test system: LOX IMVI
SK-OV-3 = test system: SK-OV-3
Malme-3M = test system: Malme-3M
ACHN = test system: ACHN
HOP-62 = test system: HOP-62
UO-31 = test system: UO-31
OVCAR-4 = test system: OVCAR-4
SK-MEL-28 = test system: SK-MEL-28
CAKI-1 = test system: CAKI-1
HT-29 = test system: HT-29
RPMI-8226 = test system: RPMI-8226
UACC-62 = test system: UACC-62
SNB-78 = test system: SNB-78
HOP-18 = test system: HOP-18
MCF7 = test system: MCF7
LXFL 529 = test system: LXFL 529
RXF 631 = test system: RXF 631
HL-60 = test system: HL-60
EKVX = test system: EKVX
HCT-116 = test system: HCT-116
MOLT-4 = test system: MOLT-4
HCT-15 = test system: HCT-15
SF-539 = test system: SF-539
A498 = test system: A498
BT-549 = test system: BT-549
SR = test system: SR
OVCAR-3 = test system: OVCAR-3
NCI-H522 = test system: NCI-H522
DLD-1 = test system: DLD-1
CCRF-CEM = test system: CCRF-CEM
SNB-19 = test system: SNB-19
SF-295 = test system: SF-295
DMS-114 = test system: DMS-114
SF-268 = test system: SF-268
COLO 205 = test system: COLO 205
RXF 393 = test system: RXF 393
U-251 = test system: U-251
SK-MEL-5 = test system: SK-MEL-5
DU-145 = test system: DU-145

Structure (SMILES): CCCC(=O)N[C@H]1CCc2cc(OC)c(OC)c(OC)c2-c2ccc(SC)c(=O)cc21
- GI50 (786-0): < 10 nM (active)
- GI50 (MDA-MB-231): < 10 nM (active)
- GI50 (NCI-H460): < 10 nM (active)
- GI50 (NCI-H226): < 46.5 nM (active)
- GI50 (DMS-273): < 10 nM (active)
- GI50 (SK-MEL-2): < 10 nM (active)
- GI50 (MDA-N): < 10 nM (active)
- GI50 (KM12): < 10 nM (active)
- GI50 (TK-10): < 41.1 nM (active)
- GI50 (OVCAR-5): 278 nM (active)
- GI50 (M19-MEL): < 10 nM (active)
- GI50 (KM-20L2): < 10 nM (active)
- GI50 (SW-620): < 10 nM (active)
- GI50 (HCC 2998): < 10 nM (active)
- GI50 (A549): < 10 nM (active)
- GI50 (M14): < 10 nM (active)
- GI50 (PC-3): < 10 nM (active)
- GI50 (T47D): > 100000 nM (inactive)
- GI50 (SN12C): < 10 nM (active)
- GI50 (Hs-578T): < 10 nM (active)
- GI50 (OVCAR-8): < 10 nM (active)
- GI50 (HOP-92): < 10 nM (active)
- GI50 (NCI-H23): < 10 nM (active)
- GI50 (NCI/ADR-RES): 16 nM (active)
- GI50 (MDA-MB-435): < 10 nM (active)
- GI50 (SNB-75): < 10 nM (active)
- GI50 (IGROV-1): < 10 nM (active)
- GI50 (K562): < 10 nM (active)
- GI50 (LOX IMVI): < 10 nM (active)
- GI50 (SK-OV-3): 143 nM (active)
- GI50 (Malme-3M): < 10 nM (active)
- GI50 (ACHN): < 10 nM (active)
- GI50 (HOP-62): < 10 nM (active)
- GI50 (UO-31): 310 nM (active)
- GI50 (OVCAR-4): 17100 nM (inactive)
- GI50 (SK-MEL-28): < 10 nM (active)
- GI50 (CAKI-1): < 10 nM (active)
- GI50 (HT-29): < 10 nM (active)
- GI50 (RPMI-8226): 63.1 nM (active)
- GI50 (UACC-62): < 10 nM (active)
- GI50 (SNB-78): < 10 nM (active)
- GI50 (HOP-18): > 35800 nM (inactive)
- GI50 (MCF7): < 10 nM (active)
- GI50 (LXFL 529): < 10 nM (active)
- GI50 (RXF 631): < 10 nM (active)
- GI50 (HL-60): < 10 nM (active)
- GI50 (EKVX): 51900 nM (inactive)
- GI50 (HCT-116): < 10 nM (active)
- GI50 (MOLT-4): < 10 nM (active)
- GI50 (HCT-15): 10.9 nM
- GI50 (SF-539): < 10 nM (active)
- GI50 (A498): < 10 nM (active)
- GI50 (BT-549): < 10 nM (active)
- GI50 (SR): < 10 nM (active)
- GI50 (OVCAR-3): < 10 nM (active)
- GI50 (NCI-H522): < 10 nM (active)
- GI50 (DLD-1): < 10 nM (active)
- GI50 (CCRF-CEM): < 46.5 nM (active)
- GI50 (SNB-19): < 10 nM (active)
- GI50 (SF-295): < 10 nM (active)
- GI50 (DMS-114): < 10 nM (active)
- GI50 (SF-268): < 10 nM (active)
- GI50 (COLO 205): < 10 nM (active)
- GI50 (RXF 393): 175 nM (active)
- GI50 (U-251): < 10 nM (active)
- GI50 (SK-MEL-5): < 10 nM (active)
- GI50 (DU-145): < 10 nM (active)
